In BindingDB's records for doi:10.1016/j.bmcl.2008.10.113 (Ucb Pharma, 2008):

target: Bcl-xL; test: Inhibition of GST fused Bcl-xL binding to biotinylated 16 mer Bak-BH3 peptide by HTRF-LANCE assay

IC50	SMILES
6.79 µM	Cc1cc(C(=O)N(c2ccccc2)c2ccccc2)nn1-c1ccccc1C(=O)N1Cc2ccccc2C[C@H]1CN(C)C [1-(2-((S)-3-((dimethylamino)methyl)-1,2,3,4-tetrahydroisoquinoline-2-carbonyl)phenyl)-5-methyl-N,N-diphenyl-1H-pyrazole-3-carboxamide]
9.69 µM	CC(=O)NC[C@@H]1Cc2ccccc2CN1C(=O)c1ccccc1-n1nc(C(=O)N(c2ccccc2)c2ccccc2)cc1C [1-(2-((S)-3-(acetamidomethyl)-1,2,3,4-tetrahydroisoquinoline-2-carbonyl)phenyl)-5-methyl-N,N-diphenyl-1H-pyrazole-3-carboxamide]
11.4 µM	Cc1cc(C(=O)N(c2ccccc2)c2ccccc2)nn1-c1ccccc1C(=O)N1Cc2ccccc2C[C@H]1CN [1-(2-((S)-3-(aminomethyl)-1,2,3,4-tetrahydroisoquinoline-2-carbonyl)phenyl)-5-methyl-N,N-diphenyl-1H-pyrazole-3-carboxamide]
5.57 µM	COC[C@@H]1Cc2ccccc2CN1C(=O)c1ccccc1-n1nc(C(=O)N(c2ccccc2)c2ccccc2)cc1C [1-(2-((S)-3-(methoxymethyl)-1,2,3,4-tetrahydroisoquinoline-2-carbonyl)phenyl)-5-methyl-N,N-diphenyl-1H-pyrazole-3-carboxamide]
2.41 µM	Cc1c(Br)c(C(=O)N(c2ccccc2)c2ccccc2)nn1-c1ccccc1C(=O)N1Cc2ccccc2C[C@H]1CO [4-bromo-1-(2-((S)-3-(hydroxymethyl)-1,2,3,4-tetrahydroisoquinoline-2-carbonyl)phenyl)-5-methyl-N,N-diphenyl-1H-pyrazole-3-carboxamide]
2.28 µM	Cc1c(Cl)c(C(=O)N(c2ccccc2)c2ccccc2)nn1-c1ccccc1C(=O)N1Cc2ccccc2C[C@H]1CO [4-chloro-1-(2-((S)-3-(hydroxymethyl)-1,2,3,4-tetrahydroisoquinoline-2-carbonyl)phenyl)-5-methyl-N,N-diphenyl-1H-pyrazole-3-carboxamide]
12.6 µM	CNC[C@@H]1Cc2ccccc2CN1C(=O)c1ccccc1-n1nc(C(=O)N(c2ccccc2)c2ccccc2)cc1C [5-methyl-1-(2-((S)-3-((methylamino)methyl)-1,2,3,4-tetrahydroisoquinoline-2-carbonyl)phenyl)-N,N-diphenyl-1H-pyrazole-3-carboxamide]
18 µM	CCOC(=O)[C@@H]1Cc2ccccc2CN1C(=O)c1ccccc1-n1nc(C(=O)N(c2ccccc2)c2ccccc2)cc1C [(3S)-ethyl 2-(2-(3-(diphenylcarbamoyl)-5-methyl-1H-pyrazol-1-yl)benzoyl)-1,2,3,4-tetrahydroisoquinoline-3-carboxylate]
